Experimental data published in ChEMBL document CHEMBL3997846, “Synthesis and activity of nucleoside-based antiprotozoan compounds” (Bioorg Med Chem, 2017).

Tests used:
[1] = test system: Trypanosoma brucei rhodesiense; experiment: Antitrypanosomal activity against bloodstream forms of Trypanosoma brucei rhodesiense STIB900 trypomastigotes after 72 hrs by alamar blue assay; type: functional; conditions: STIB900, 72 h
[2] = Selectivity index, ratio of IC50 for rat L6 cells to IC50 for bloodstream forms of Trypanosoma brucei rhodesiense STIB900 trypomastigotes; type: toxicity; conditions: read-out: Ratio IC50
[3] = test system: Trypanosoma cruzi; experiment: Antitrypanosomal activity against Trypanosoma cruzi Tulahuen strain C2C4 amastigote forms harboring LacZ infected in rat L6 cells after 96 hrs by CPRG/Nonidet reagent based photometric method; type: functional, cell-based; conditions: Tulahuen strain C2C4, L6, 96 h
[4] = Selectivity index, ratio of IC50 for rat L6 cells to IC50 for Trypanosoma cruzi Tulahuen strain C2C4 amastigote forms harboring LacZ infected in rat L6 cells; type: toxicity, cell-based; conditions: read-out: Ratio IC50
[5] = test system: Leishmania donovani; experiment: Antileishmanial activity against Leishmania donovani MHOM/SD/62/ISCL2D axenic amastigotes after 72 hrs by alamar blue assay; type: functional
[6] = Selectivity index, ratio of IC50 for rat L6 cells to IC50 for Leishmania donovani MHOM/SD/62/ISCL2D axenic amastigotes; type: toxicity; conditions: read-out: Ratio IC50

Row | SMILES | IC50 [1] | selectivity ratio [2] | IC50 [3] | selectivity ratio [4] | IC50 [5] | selectivity ratio [6]
1 | CSC[C@H]1O[C@@H](n2cnc3c(N)nc(I)nc32)[C@H](O)[C@@H]1O | 5 µM | 27 | 88 µM | 2 | 132 µM | 1
2 | C[C@H]1O[C@@H](n2cnc3c(N)nc(Cl)nc32)[C@H](O)[C@@H]1O | 84 µM | 2 | 189 µM | 0.8 | 49 µM | 3
3 | CNc1ncnc2c1ncn2[C@@H]1O[C@H](C)[C@@H](O)[C@H]1O | 206 µM | 1 | 195 µM | 1 | > 380 µM | < 0.7
4 | C[C@H]1O[C@@H](n2cnc3c(N)nc(NN)nc32)[C@H](O)[C@@H]1O | 132 µM | 1 | 147 µM | 1 | 73 µM | 3
5 | C[C@H]1O[C@@H](n2cnc3c(N)nc(F)nc32)[C@H](O)[C@@H]1O | 65 µM | < 0.1 | 7.1 µM | 0.3 | 0.88 µM | 2
6 | C[C@H]1O[C@@H](n2cnc3c(N)nc(N=[N+]=[N-])nc32)[C@H](O)[C@@H]1O | 137 µM | 1 | 167 µM | 1 | 125 µM | 2
7 | CNc1nc(I)nc2c1ncn2[C@@H]1O[C@H](C)[C@@H](O)[C@H]1O | 49 µM | 3 | 126 µM | 1 | 199 µM | 0.7
8 | C[C@H]1O[C@@H](n2cnc3c(N)nc(N)nc32)[C@H](O)[C@@H]1O | 224 µM | 2 | > 340 µM | < 1 | 51 µM | 7
9 | C[C@H]1O[C@@H](n2cnc3c(N)nc(I)nc32)[C@H](O)[C@@H]1O | 27 µM | 4 | 120 µM | 0.9 | 208 µM | 0.5
10 | C[C@H]1O[C@@H](n2cnc3c(N)nc(C#N)nc32)[C@H](O)[C@@H]1O | 79 µM | 2 | 144 µM | 1 | 100 µM | 2
11 | CNc1ncnc2c1ncn2[C@@H]1O[C@H](CSC)[C@@H](O)[C@H]1O | 16 µM | 10 | 191 µM | 0.8 | > 320 µM | < 0.5
12 | CNc1nc(I)nc2c1ncn2[C@@H]1O[C@H](CSC)[C@@H](O)[C@H]1O | 21 µM | 6 | 104 µM | 1 | 101 µM | 1
13 | CSC[C@H]1O[C@@H](n2cnc3c(N)nc(F)nc32)[C@H](O)[C@@H]1O | 4.3 µM | 0.1 | 2.6 µM | 0.2 | 0.8 µM | 0.7
14 | CSC[C@H]1O[C@@H](n2cnc3c(N)nc(N=[N+]=[N-])nc32)[C@H](O)[C@@H]1O | 51 µM | 5 | 144 µM | 2 | 288 µM | 0.8
15 | CSC[C@H]1O[C@@H](n2cnc3c(N)nc(Cl)nc32)[C@H](O)[C@@H]1O | 203 µM | 1 | > 270 µM | < 1 | 60 µM | 5
16 | CSC[C@H]1O[C@@H](n2cnc3c(N)nc(NN)nc32)[C@H](O)[C@@H]1O | 149 µM | 1 | 157 µM | 1 | 173 µM | 1
